We go through eleven molecules from patent US20250129067A1 (Progentos Therapeutics, Inc., priority 2021, published 2025).

The target in one data set is PDGFRα (Homo sapiens (Human), UniProt P16234). Nature of the data set: PDGFRα kinase enzyme assay (Promega PDGFRα Kinase Enzyme System, ADP-Glo). Conditions: 11-point dose response, 10,000 nM to 0.169 nM; 150 uM ATP; BLQ = below limit of quantitation; read-out: IC50 Values on PDGFRα Kinase Inhibition, IC50. The format is biochemical. How it is done:
The PDGFRα enzyme assays were conducted per the manufacturer's directions (Promega PDGFRα Kinase Enzyme System and ADP Glo Assay Cat #V8011). […] 20 ng of purified PDGFRα protein was added to the test article. […] ADP-Glo was added to halt the kinase reaction and deplete the remaining ATP. Kinase detection reagent, containing luciferase and luciferin, was used to convert the ADP signal into luminescence. Luminescence was measured using a Molecular Devices Spectramax ID5 and compared to a standard curve to determine kinase activity. IC50s were calculated using Prism 9, Graphpad software.
A general note: ADP-Glo turns the ADP formed in a reaction into a luminescent signal.

Data set [1] concerns Oligodendrocyte progenitor cells (OPCs). Nature of the data set: In vitro OPC differentiation assay, GPR17 expression (immunocytochemistry). To be noted: 3 μM (10× concentration, final 0.3 μM); 72 hours; fold change over vehicle.
Description: To assess the effects of the PDGFRα inhibitors on OPC differentiation, primary OPCs were cultured and exposed to compounds. The number of newly generated oligodendrocytes was assessed by monitoring GPR17 expression. GPR17 is preferentially expressed in actively differentiating oligodendrocytes, allowing them to be distinguished from precursors and more differentiated oligodendrocytes.
Cortices from postnatal day (P) 1-3 rats were dissected and collected into ice cold Hank's Balanced Salt Solution (HBSS). […] Briefly, the cortical cell suspension was centrifuged and washed with buffer (0.5% BSA in PBS) and labeled with Anti-A2B^5 MicroBeads (10 μL beads per 1×10^7 cells) for 15 minutes at 4° C. Following the incubation, cells were washed once with BSA buffer to remove unlabeled beads. A2B^5 positive cells were eluted on the column using the AutoMACS® (Miltenyi, as per manufacturer's protocol using “Possel-s” program). Eluted cells were further washed twice with OPC growth media. Cell counts were performed using Countess III cell counter (ThermoFisher; AMQAX2000) and cells were plated.
The plates were allowed to sit at room temperature for 15 minutes to ensure proper dispersion of cells in a well. The plates were then transferred to the incubator (37° C.; 5% CO2).
Cells were then incubated for 72 hours at 37° C., 5% CO2 before immunostaining for GPR17 marker expression.
Following 72 hours in culture, cells were fixed with 4% paraformaldehyde for 15 minutes and then washed three times in Dulbecco's phosphate buffered saline (DPBS). Prior to immunostaining, cells were treated with a blocking solution (10% normal goat serum containing 1% BSA and 0.1% Triton® X-100 in DPBS) for 15 minutes at room temperature. Primary antibody (anti-GPR17 at 1:2000; Origene TA811615) was applied to cells overnight at 4° C. in incubation solution containing 1% normal goat serum, 1% BSA, and 0.1% Triton X-100 in DPBS. […] The secondary antibody was applied in incubation solution for 2 hours at room temperature, protected from light.
The number of differentiated GPR17+ cells was normalized to the total nuclei count and percent differentiated GPR17+ cells were reported. Statistical analysis was done using one-way ANOVA with multiple comparisons and post-hoc Tukey test in GraphPad Prism (GraphPad Software).

Structures are written as SMILES.

Sequence of PDGFRα (P16234 24-1089): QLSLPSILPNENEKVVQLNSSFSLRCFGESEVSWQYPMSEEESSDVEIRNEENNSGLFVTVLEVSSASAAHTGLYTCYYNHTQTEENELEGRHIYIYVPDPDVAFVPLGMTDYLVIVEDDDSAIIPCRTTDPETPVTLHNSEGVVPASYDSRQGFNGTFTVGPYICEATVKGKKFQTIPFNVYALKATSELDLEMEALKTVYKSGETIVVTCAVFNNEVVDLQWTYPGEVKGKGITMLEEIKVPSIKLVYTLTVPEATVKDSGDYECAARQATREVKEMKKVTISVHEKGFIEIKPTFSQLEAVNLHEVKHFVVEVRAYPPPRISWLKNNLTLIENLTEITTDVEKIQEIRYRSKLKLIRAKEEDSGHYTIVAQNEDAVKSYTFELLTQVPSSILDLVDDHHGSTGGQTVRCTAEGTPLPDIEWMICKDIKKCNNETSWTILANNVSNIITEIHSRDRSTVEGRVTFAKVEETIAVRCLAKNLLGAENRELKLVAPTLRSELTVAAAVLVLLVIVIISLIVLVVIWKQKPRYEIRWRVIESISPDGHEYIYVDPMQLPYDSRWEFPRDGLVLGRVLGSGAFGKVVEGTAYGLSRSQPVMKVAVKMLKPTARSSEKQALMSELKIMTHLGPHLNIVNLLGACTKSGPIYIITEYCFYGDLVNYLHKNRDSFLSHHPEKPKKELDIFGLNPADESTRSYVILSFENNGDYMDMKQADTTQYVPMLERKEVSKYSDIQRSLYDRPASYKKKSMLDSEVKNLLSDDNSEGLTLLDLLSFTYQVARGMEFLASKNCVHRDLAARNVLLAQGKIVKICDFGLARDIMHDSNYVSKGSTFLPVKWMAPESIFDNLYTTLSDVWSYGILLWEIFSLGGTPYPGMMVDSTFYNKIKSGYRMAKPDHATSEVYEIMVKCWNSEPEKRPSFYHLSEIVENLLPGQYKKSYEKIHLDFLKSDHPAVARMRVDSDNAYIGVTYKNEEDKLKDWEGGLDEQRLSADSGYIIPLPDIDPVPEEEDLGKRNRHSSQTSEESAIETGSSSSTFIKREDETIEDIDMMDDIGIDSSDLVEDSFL

As a reminder, the IC50 is the point on the concentration scale where inhibition reaches its midpoint. `Cc1cn(-c2ccn3c(N4CCCN(C(=O)OC(C)(C)C)CC4)cnc3n2)cn1` [Compound 111, tert-butyl 4-(7-(4-methyl-1H-imidazol-1-yl)imidazo[1,2-a]pyrimidin-3-yl)-1,4-diazepane-1-carboxylate]: the IC50 on PDGFRα was > 10 µM. Moreover, in data set [1], the “GPR17 Fold Induction (Over Vehicle; 3 μM)” value (shortened to “GPR17 Fold Induction”) was found to be 0.60.
The corresponding values for `CN(CCN(C)c1cnc2nc(-c3cccnc3)ccn12)C(=O)OC(C)(C)C` [Compound 112] are > 10 µM and 0.91.
Regarding `Cn1cc(-c2cc3ncc(N4CCN(c5ncc(Cc6ccccc6)cn5)CC4)n3cn2)cn1` [Compound 113, 3-(4-(5-benzylpyrimidin-2-yl)piperazin-1-yl)-7-(1-methyl-1H-pyrazol-4-yl)imidazo[1,2-c]pyrimidine], at PDGFRα, the IC50 is > 10 µM. The “GPR17 Fold Induction” value in data set [1] came out at 0.57.
With `Cn1cc(-c2cc3ncc(N4CCCN(c5ncc(Cc6ccccc6)cn5)CC4)n3cn2)cn1` [Compound 114, 3-(4-(5-benzylpyrimidin-2-yl)-1,4-diazepan-1-yl)-7-(1-methyl-1H-pyrazol-4-yl)imidazo[1,2-c]pyrimidine], the IC50 on PDGFRα was > 10 µM. Moreover, in data set [1], the “GPR17 Fold Induction” value is listed as 0.33.
With `C[C@@H](OC(=O)N1CCN(c2cnc3cc(-c4cnn(C)c4)ncn23)CC1)c1ccccc1` [Compound 115, (R)-1-phenylethyl 4-(7-(1-methyl-1H-pyrazol-4-yl)imidazo[1,2-c]pyrimidin-3-yl)piperazine-1-carboxylate], the IC50 at PDGFRα is > 10 µM. For the same molecule, in data set [1], the “GPR17 Fold Induction” value is recorded as 2.46.
As to `C[C@@H](OC(=O)N1CCN(c2cnc3nc(-c4cnn(C)c4)ccn23)CC1)c1ccccc1` [Compound 116, (R)-1-phenylethyl 4-(7-(1-methyl-1H-pyrazol-4-yl)imidazo[1,2-a]pyrimidin-3-yl)piperazine-1-carboxylate], the IC50 on PDGFRα is 6.52 µM. In data set [1], the “GPR17 Fold Induction” value stood at 4.31.
In the case of `C[C@@H](OC(=O)N1CCCN(c2cnc3nc(-c4cnn(C)c4)ccn23)CC1)c1ccccc1` [Compound 117, (R)-1-phenylethyl 4-(7-(1-methyl-1H-pyrazol-4-yl)imidazo[1,2-a]pyrimidin-3-yl)-1,4-diazepane-1-carboxylate], on PDGFRα, the IC50 is > 10 µM. For the same molecule, the “GPR17 Fold Induction” value in data set [1] amounted to 1.39.
On to `Cn1cc(-c2cc3ncc(N4CCN(C(=O)NCc5ccc(C(F)(F)F)cc5)CC4)n3cn2)cn1` [Compound 118, 4-(7-(1-methyl-1H-pyrazol-4-yl)imidazo[1,2-c]pyrimidin-3-yl)-N-(4-(trifluoromethyl)benzyl)piperazine-1-carboxamide], for which the IC50 on PDGFRα is > 10 µM. Moreover, the “GPR17 Fold Induction” value in data set [1] is 0.93.
`Cn1cc(-c2ccn3c(N4CCN(C(=O)NCc5ccc(C(F)(F)F)cc5)CC4)cnc3n2)cn1` [Compound 119, 4-(7-(1-methyl-1H-pyrazol-4-yl)imidazo[1,2-a]pyrimidin-3-yl)-N-(4-(trifluoromethyl)benzyl)piperazine-1-carboxamide]: on PDGFRα, the IC50 amounted to 1.71 µM. In addition, in data set [1], the “GPR17 Fold Induction” value came to 8.04.
The corresponding values for `Cn1cc(-c2ccn3c(N4CCCN(C(=O)NCc5ccc(C(F)(F)F)cc5)CC4)cnc3n2)cn1` [Compound 120, 4-(7-(1-methyl-1H-pyrazol-4-yl)imidazo[1,2-a]pyrimidin-3-yl)-N-(4-(trifluoromethyl)benzyl)-1,4-diazepane-1-carboxamide] are > 10 µM and 0.87.
As for `Cn1cc(-c2ccn3c(N4CCN(c5ncc(Cc6ccccc6)cn5)CC4)cnc3n2)cn1` [Compound 121, 3-(4-(5-benzylpyrimidin-2-yl)piperazin-1-yl)-7-(1-methyl-1H-pyrazol-4-yl)imidazo[1,2-a]pyrimidine], the IC50 at PDGFRα is 0.818 µM. For the same molecule, the “GPR17 Fold Induction” value in data set [1] worked out at 4.71.
